These results are taken from patent US8927771B2, “Pharmaceutically acceptable cocrystals of N-[2-(7-methoxyl-1-naphtyl)ethyl]acetamide and methods of their preparation” (Zentiva k.s., priority 2011, dated 2015).

Molecules are shown by their SMILES.

For data set [1] the following is noted: DVS, range of 20-80% RH. An excerpt: A sample of the agomelatine citric acid cocrystal was subjected to DVS analysis ([…] Vapor Sorption). The sample was placed on a microbalance in a controlled humidity chamber and subjected to two cycles of increasing humidity (red and green lines) and two cycles of decreasing humidity (blue and purple lines) as shown in FIG. 4.

For data set [2] the following is noted: 90° C. in a glass capillary for 7 hours, X-ray powder diffraction. How it is done:
A sample of the agomelatine citric acid cocrystal was heated to 90° C. in a glass capillary for 7 hours.

The conditions of data set [3]: slurried in water, Raman spectra. As to the method:
A sample of the agomelatine citric acid cocrystal was slurried in water and the solid analysed by Raman spectroscopy at 20 minute intervals.

The conditions of data set [4]: suspensions in organic solvents (alcohols, ketones, esters, alkanes, aromatic hydrocarbons), 30° C., one week, Raman spectroscopy. How it is done:
Samples of the agomelatine citric acid cocrystal were maturated as suspensions in a library of organic solvents including alcohols, ketones, esters, alkanes and aromatic hydrocarbons at a temperature of 30° C. for one week.

The conditions of data set [5]: BCS classification system; cited from earlier work.

For the compound `COc1ccc2cccc(CCNC(C)=O)c2c1.O=C(O)CC(O)(CC(=O)O)C(=O)O` [agomelatine citric acid cocrystal, N-[2-(7-methoxy-1-naphthyl)ethyl]acetamide Citric Acid Cocrystal], in data set [1], the hygroscopicity entry is recorded as “not particularly hygroscopic”. In addition, in data set [1] (two cycles of increasing and two of decreasing humidity), the change in mass entry is “less than 0.2%”. In data set [2], the “crystalline phase after heating” value is listed as “pure crystalline phase consistent with the agomelatine citric acid cocrystal”. Also, in data set [3] (after 20 minutes), the “state of the solid in water slurry after 20 minutes” value was “near to complete dissolution of the citric acid”. Further, in data set [3] (after 40 minutes), the “state of the solid in water slurry after 40 minutes” value is given as “no further changes in the spectrum were observed”. Further, the “stability of the crystalline phase in suspension” value in data set [4] is “generally stable”.
In the case of `COc1ccc2cccc(CCNC(C)=O)c2c1` [N-[2-(7-Methoxy-1-naphthyl)ethyl]acetamide], in data set [5], the BCS solubility class result was “high solubility drug”.
